In brackets after ≈: the same amount, converted by molar mass. Activity calls are given as the source filed them. The rule behind the calls is not given here.
What was measured:
Raoultella planticola [1] = experiment: Antimicrobial activity against Klebsiella planticola MTCC 530 after 24 hrs by well diffusion method; assay type: functional; conditions: MTCC 530, 24 h
Pseudomonas aeruginosa [2] = experiment: Antimicrobial activity against Pseudomonas aeruginosa MTCC 2453 after 24 hrs by well diffusion method; assay type: functional; conditions: MTCC 2453, 24 h
Escherichia coli [3] = experiment: Antimicrobial activity against Escherichia coli MTCC 739 after 24 hrs by well diffusion method; assay type: functional; conditions: MTCC 739, 24 h
Bacillus subtilis [4] = experiment: Antimicrobial activity against Bacillus subtilis MTCC 121 after 24 hrs by well diffusion method; assay type: functional; conditions: MTCC 121, 24 h
Staphylococcus aureus [5] = experiment: Antimicrobial activity against Staphylococcus aureus MLS-16 MTCC 2940 after 24 hrs by well diffusion method; assay type: functional; conditions: MLS-16 MTCC 2940, 24 h
Micrococcus luteus [6] = experiment: Antimicrobial activity against Micrococcus luteus MTCC 2470 after 24 hrs by well diffusion method; assay type: functional; conditions: MTCC 2470, 24 h
Staphylococcus aureus [7] = experiment: Antimicrobial activity against Staphylococcus aureus MTCC 96 after 24 hrs by well diffusion method; assay type: functional; conditions: MTCC 96, 24 h
Vero = experiment: Cytotoxicity against african green monkey Vero cells; assay type: cell-based; conditions: Chlorocebus sabaeus
MRC5 = experiment: Cytotoxicity against human MRC5 cells; assay type: cell-based
[8] = tested on: Mycobacterium tuberculosis; experiment: Antimicrobial activity against Mycobacterium tuberculosis H37Rv after 3 weeks by broth dilution method; assay type: functional; conditions: for MIC: 504 h
Raoultella planticola [9] = experiment: Antibiofilm activity against Klebsiella planticola MTCC 530 after 24 hrs by crystal violet assay; assay type: functional, organism-based; conditions: for IC50: MTCC 530, 24 h
Staphylococcus aureus [10] = experiment: Antibiofilm activity against Staphylococcus aureus MLS-16 MTCC 2940 after 24 hrs by crystal violet assay; assay type: functional, organism-based; conditions: MLS-16 MTCC 2940, 24 h
Staphylococcus aureus [11] = experiment: Antibiofilm activity against Staphylococcus aureus MTCC 96 after 24 hrs by crystal violet assay; assay type: functional, organism-based; conditions: for IC50: MTCC 96, 24 h
Staphylococcus aureus [12] = experiment: Antimicrobial activity against methicillin-resistant Staphylococcus aureus after 24 hrs by microdilution method; assay type: functional
Candida albicans = experiment: Antimicrobial activity against Candida albicans MTCC 3017 at 150 ug/ml after 24 hrs by well diffusion method; assay type: functional, organism-based
Raoultella planticola [13] = experiment: Bactericidal activity against Klebsiella planticola MTCC 530 after 24 hrs; assay type: functional; conditions: MTCC 530, 24 h
Pseudomonas aeruginosa [14] = experiment: Bactericidal activity against Pseudomonas aeruginosa MTCC 2453 after 24 hrs; assay type: functional; conditions: MTCC 2453, 24 h
Escherichia coli [15] = experiment: Bactericidal activity against Escherichia coli MTCC 739 after 24 hrs; assay type: functional; conditions: MTCC 739, 24 h
Bacillus subtilis [16] = experiment: Bactericidal activity against Bacillus subtilis MTCC 121 after 24 hrs; assay type: functional; conditions: MTCC 121, 24 h
Staphylococcus aureus [17] = experiment: Bactericidal activity against Staphylococcus aureus MLS-16 MTCC 2940 after 24 hrs; assay type: functional; conditions: MLS-16 MTCC 2940, 24 h
Staphylococcus aureus [18] = experiment: Bactericidal activity against Staphylococcus aureus MTCC 96 after 24 hrs; assay type: functional; conditions: MTCC 96, 24 h
Enterococcus faecalis = experiment: Antimicrobial activity against vancomycin -resistant Enterococcus faecalis after 24 hrs by microdilution method; assay type: functional
Micrococcus luteus [19] = experiment: Bactericidal activity against Micrococcus luteus MTCC 2470 after 24 hrs; assay type: functional; conditions: MTCC 2470, 24 h
[20] = tested on: Mycobacterium tuberculosis; experiment: Ratio of linezolid MIC to compound MIC for Mycobacterium tuberculosis H37Rv after 3 weeks by broth dilution method; assay type: functional

COc1cc(Cn2cc(CNC(=O)c3ccc([N+](=O)[O-])o3)nn2)ccc1O
MIC (Raoultella planticola [1]): 75 mg/L (≈ 201 µM)
MIC (Pseudomonas aeruginosa [2]): > 150 mg/L
MIC (Escherichia coli [3]): 37.5 mg/L (≈ 100 µM)
MIC (Bacillus subtilis [4]): 4.68 mg/L (≈ 12.5 µM)
MIC (Staphylococcus aureus [5]): 2.34 mg/L (≈ 6.27 µM)
MIC (Micrococcus luteus [6]): 1.17 mg/L (≈ 3.13 µM)
MIC (Staphylococcus aureus [7]): 18.8 mg/L (≈ 50.2 µM)
IC50 (Vero): 224 µM
IC50 (MRC5): 182 µM
MIC [8]: 8 mg/L (≈ 21.4 µM)
IC50 (Raoultella planticola [9]): 42.5 mg/L (≈ 114 µM)
IC50 (Staphylococcus aureus [10]): 1.7 mg/L (≈ 4.55 µM)
IC50 (Staphylococcus aureus [11]): 10.8 mg/L (≈ 28.9 µM)
MIC (Staphylococcus aureus [12]): 16 mg/L (≈ 42.9 µM)
Activity (Candida albicans): inactive
MBC (Raoultella planticola [13]): 75 mg/L (≈ 201 µM)
MBC (Pseudomonas aeruginosa [14]): > 150 mg/L
MBC (Escherichia coli [15]): 75 mg/L (≈ 201 µM)
MBC (Bacillus subtilis [16]): 9.37 mg/L (≈ 25.1 µM)
MBC (Staphylococcus aureus [17]): 4.68 mg/L (≈ 12.5 µM)
MBC (Staphylococcus aureus [18]): 18.8 mg/L (≈ 50.2 µM)
MIC (Enterococcus faecalis): > 64 mg/L
MBC (Micrococcus luteus [19]): 2.34 mg/L (≈ 6.27 µM)

COc1ccc(Cn2cc(CNC(=O)c3ccc([N+](=O)[O-])o3)nn2)cc1O
MIC (Raoultella planticola [1]): 18.8 mg/L (≈ 50.2 µM)
MIC (Pseudomonas aeruginosa [2]): > 150 mg/L
MIC (Escherichia coli [3]): 37.5 mg/L (≈ 100 µM)
MIC (Bacillus subtilis [4]): 9.37 mg/L (≈ 25.1 µM)
MIC (Staphylococcus aureus [5]): 9.37 mg/L (≈ 25.1 µM)
MIC (Micrococcus luteus [6]): 9.37 mg/L (≈ 25.1 µM)
MIC (Staphylococcus aureus [7]): 37.5 mg/L (≈ 100 µM)
IC50 (Vero): 174 µM
IC50 (MRC5): 189 µM
Activity [8]: inactive
IC50 (Raoultella planticola [9]): 11.3 mg/L (≈ 30.3 µM)
IC50 (Staphylococcus aureus [10]): 5.1 mg/L (≈ 13.7 µM)
IC50 (Staphylococcus aureus [11]): 10.3 mg/L (≈ 27.6 µM)
Activity (Candida albicans): inactive
MBC (Raoultella planticola [13]): 18.8 mg/L (≈ 50.2 µM)
MBC (Pseudomonas aeruginosa [14]): > 150 mg/L
MBC (Escherichia coli [15]): 75 mg/L (≈ 201 µM)
MBC (Bacillus subtilis [16]): 18.8 mg/L (≈ 50.2 µM)
MBC (Staphylococcus aureus [17]): 18.8 mg/L (≈ 50.2 µM)
MBC (Staphylococcus aureus [18]): 75 mg/L (≈ 201 µM)
MBC (Micrococcus luteus [19]): 9.37 mg/L (≈ 25.1 µM)

CC[C@H]1OC(=O)[C@H](C)[C@@H](O[C@H]2C[C@@](C)(OC)[C@@H](O)[C@H](C)O2)[C@H](C)[C@@H](O[C@@H]2O[C@H](C)C[C@H](N(C)C)[C@H]2O)[C@](C)(O)C[C@@H](C)C(=O)[C@H](C)[C@@H](O)[C@]1(C)O [ERYTHROMYCIN]
IC50 (Raoultella planticola [9]): 0.19 mg/L (≈ 0.259 µM)
IC50 (Staphylococcus aureus [10]): 0.21 mg/L (≈ 0.286 µM)
IC50 (Staphylococcus aureus [11]): 0.25 mg/L (≈ 0.341 µM)

O=C(NCc1cn(Cc2ccc(F)c(Cl)c2)nn1)c1ccc([N+](=O)[O-])o1
Ratio [20]: 4
MIC (Raoultella planticola [1]): 18.8 mg/L (≈ 49.4 µM)
MIC (Pseudomonas aeruginosa [2]): > 150 mg/L
MIC (Escherichia coli [3]): 18.8 mg/L (≈ 49.4 µM)
MIC (Bacillus subtilis [4]): 1.17 mg/L (≈ 3.08 µM)
MIC (Staphylococcus aureus [5]): 2.34 mg/L (≈ 6.16 µM)
MIC (Micrococcus luteus [6]): 2.34 mg/L (≈ 6.16 µM)
MIC (Staphylococcus aureus [7]): 18.8 mg/L (≈ 49.4 µM)
IC50 (Vero): 344 µM
IC50 (MRC5): 254 µM
MIC [8]: 0.25 mg/L (≈ 0.658 µM)
IC50 (Raoultella planticola [9]): 12.2 mg/L (≈ 32.1 µM)
IC50 (Staphylococcus aureus [10]): 1.1 mg/L (≈ 2.9 µM)
IC50 (Staphylococcus aureus [11]): 13.6 mg/L (≈ 35.8 µM)
MIC (Staphylococcus aureus [12]): 8 mg/L (≈ 21.1 µM)
Activity (Candida albicans): inactive
MBC (Raoultella planticola [13]): 37.5 mg/L (≈ 98.8 µM)
MBC (Pseudomonas aeruginosa [14]): > 150 mg/L
MBC (Escherichia coli [15]): 18.8 mg/L (≈ 49.4 µM)
MBC (Bacillus subtilis [16]): 1.17 mg/L (≈ 3.08 µM)
MBC (Staphylococcus aureus [17]): 2.34 mg/L (≈ 6.16 µM)
MBC (Staphylococcus aureus [18]): 18.8 mg/L (≈ 49.4 µM)
MIC (Enterococcus faecalis): > 64 mg/L
MBC (Micrococcus luteus [19]): 2.34 mg/L (≈ 6.16 µM)

CC(=O)NC[C@H]1CN(c2ccc(N3CCOCC3)c(F)c2)C(=O)O1 [LINEZOLID]
MIC [8]: 1 mg/L (≈ 2.96 µM)
MIC (Staphylococcus aureus [12]): 8 mg/L (≈ 23.7 µM)

O=C(NCc1cn(Cc2ccc(C(F)(F)F)cc2)nn1)c1ccc([N+](=O)[O-])o1
MIC (Raoultella planticola [1]): > 150 mg/L
MIC (Pseudomonas aeruginosa [2]): > 150 mg/L
MIC (Escherichia coli [3]): > 150 mg/L
MIC (Bacillus subtilis [4]): 1.17 mg/L (≈ 2.96 µM)
MIC (Staphylococcus aureus [5]): 2.34 mg/L (≈ 5.92 µM)
MIC (Micrococcus luteus [6]): 2.34 mg/L (≈ 5.92 µM)
MIC (Staphylococcus aureus [7]): > 150 mg/L
IC50 (Vero): 289 µM
IC50 (MRC5): 321 µM
Activity [8]: inactive
inhibition (Raoultella planticola [9]): inactive
IC50 (Staphylococcus aureus [10]): 8.4 mg/L (≈ 21.2 µM)
IC50 (Staphylococcus aureus [11]): 64.7 mg/L (≈ 164 µM)
Activity (Candida albicans): inactive
MBC (Raoultella planticola [13]): > 150 mg/L
MBC (Pseudomonas aeruginosa [14]): > 150 mg/L
MBC (Escherichia coli [15]): > 150 mg/L
MBC (Bacillus subtilis [16]): 4.68 mg/L (≈ 11.8 µM)
MBC (Staphylococcus aureus [17]): 2.34 mg/L (≈ 5.92 µM)
MBC (Staphylococcus aureus [18]): > 150 mg/L
MBC (Micrococcus luteus [19]): 2.34 mg/L (≈ 5.92 µM)

COc1cc(Cn2cc(CNC(=O)c3ccc([N+](=O)[O-])o3)nn2)ccc1F
MIC (Raoultella planticola [1]): 37.5 mg/L (≈ 99.9 µM)
MIC (Pseudomonas aeruginosa [2]): > 150 mg/L
MIC (Escherichia coli [3]): > 150 mg/L
MIC (Bacillus subtilis [4]): 2.34 mg/L (≈ 6.23 µM)
MIC (Staphylococcus aureus [5]): 9.37 mg/L (≈ 25 µM)
MIC (Micrococcus luteus [6]): 1.17 mg/L (≈ 3.12 µM)
MIC (Staphylococcus aureus [7]): > 150 mg/L
IC50 (Vero): 225 µM
IC50 (MRC5): 155 µM
Activity [8]: inactive
IC50 (Raoultella planticola [9]): 22.7 mg/L (≈ 60.5 µM)
IC50 (Staphylococcus aureus [10]): 2.7 mg/L (≈ 7.19 µM)
inhibition (Staphylococcus aureus [11]): inactive
Activity (Candida albicans): inactive
MBC (Raoultella planticola [13]): 37.5 mg/L (≈ 99.9 µM)
MBC (Pseudomonas aeruginosa [14]): > 150 mg/L
MBC (Escherichia coli [15]): > 150 mg/L
MBC (Bacillus subtilis [16]): 4.68 mg/L (≈ 12.5 µM)
MBC (Staphylococcus aureus [17]): 9.37 mg/L (≈ 25 µM)
MBC (Staphylococcus aureus [18]): > 150 mg/L
MBC (Micrococcus luteus [19]): 1.17 mg/L (≈ 3.12 µM)

Source: ChEMBL document CHEMBL3091424, “Anti-tubercular agents. Part 8: synthesis, antibacterial and antitubercular activity of 5-nitrofuran based 1,2,3-triazoles” (Bioorg Med Chem Lett, 2013)
